Test results reported in patent US6723343B2, “Pharmaceutical tramadol salts” (Gruenenthal GmbH, priority 1999, dated 2004).

Details: deionized water, 25° C., stirred for 20 hours, HPLC against tramadol hydrochloride as standard
Description: The solubility of the salts of tramadol and a sugar substitute was determined as follows:
The requisite amount of the salt of tramadol and the appropriate sugar substitute can optionally be determined by preliminary experiments.
After the undissolved salt of tramadol and the appropriate sugar substitute had been allowed to settle out, the clear supernatant was pipetted off and centrifuged for 5 minutes at a speed of at least 3000 rpm. Part of the resulting clear supernatant is transferred to an HPLC sample vial and the concentration of the salt of tramadol and the appropriate sugar substitute is determined against tramadol hydrochloride as standard.

COc1cccc(C2(O)CCCCC2CN(C)C)c1.O=C1NS(=O)(=O)c2ccccc21 (stereo not shown) [tramadol saccharinate]
solubility in water: 22.5 mg/mL
